Assay results published in the supplement of paper PMC9663587.

Assays:
[1] = system: CAL120; assay: GRmax, 72 h; higher = less effect;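 note: breast cell lines in 384-well plates, nine doses across a 10^4 range, Dye Drop imaging of viable cells vs DMSO and time-zero plates, GR 0 means no net growth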
[2] = system: CAMA1; assay: GRmax, 72 h; higher = less effect;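 note: breast cell lines in 384-well plates, nine doses across a 10^4 range, Dye Drop imaging of viable cells vs DMSO and time-zero plates, GR 0 means no net growth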
[3] = system: HCC1187; assay: GRmax, 72 h; higher = less effect;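 note: breast cell lines in 384-well plates, nine doses across a 10^4 range, Dye Drop imaging of viable cells vs DMSO and time-zero plates, GR 0 means no net growth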
[4] = system: HCC202; assay: GRmax, 72 h; higher = less effect;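 note: breast cell lines in 384-well plates, nine doses across a 10^4 range, Dye Drop imaging of viable cells vs DMSO and time-zero plates, GR 0 means no net growth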
[5] = system: MCF10A; assay: GRmax, 72 h; higher = less effect
[6] = system: SKBR3; assay: GRmax, 72 h; higher = less effect
[7] = system: SUM1315; assay: GRmax, 72 h; higher = less effect
[8] = system: SUM185PE; assay: GRmax, 72 h; higher = less effect
[9] = system: SUM190PT; assay: GRmax, 72 h; higher = less effect
[10] = system: SUM52PE; assay: GRmax, 72 h; higher = less effect
[11] = system: HCC1569; assay: area over the GR curve, 72 h; higher = more effect;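 note: Dye Drop or Deep Dye Drop imaging of viable cells in 384-well plates (Hoechst nuclei, LIVE/DEAD dye), nine half-log doses, GR normalized to DMSO controls and time-zero plates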
[12] = system: HCC1954; assay: area over the GR curve, 72 h; higher = more effect;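 note: Dye Drop or Deep Dye Drop imaging of viable cells in 384-well plates (Hoechst nuclei, LIVE/DEAD dye), nine half-log doses, GR normalized to DMSO controls and time-zero plates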
[13] = system: SUM44PE; assay: area over the GR curve, 72 h; higher = more effect;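 note: Dye Drop or Deep Dye Drop imaging of viable cells in 384-well plates (Hoechst nuclei, LIVE/DEAD dye), nine half-log doses, GR normalized to DMSO controls and time-zero plates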

Compound: O=C(c1cc(Cc2n[nH]c(=O)c3ccccc23)ccc1F)N1CCN(C(=O)C2CC2)CC1 [Olaparib/AZD2281] (max 10 µM)
- GRmax, 72 h [1]: 0.269 GR
- GRmax, 72 h [2]: 0.679 GR
- GRmax, 72 h [3]: 0.0867 GR
- GRmax, 72 h [4]: 0.606 GR
- GRmax, 72 h [5]: 0.794 GR
- GRmax, 72 h [6]: 0.565 GR
- GRmax, 72 h [7]: 0.0911 GR
- GRmax, 72 h [8]: 0.75 GR
- GRmax, 72 h [9]: 0.545 GR
- GRmax, 72 h [10]: 0.88 GR
- area over the GR curve [11]: 0.053 GR
- area over the GR curve [12]: 0.0536 GR
- area over the GR curve [13]: -0.0366 GR

Compound: CC(=O)O[C@H]1C(=O)[C@@]2(C)[C@H]([C@H](OC(=O)c3ccccc3)[C@]3(O)C[C@H](OC(=O)[C@H](O)[C@@H](NC(=O)c4ccccc4)c4ccccc4)C(C)=C1C3(C)C)[C@]1(OC(C)=O)CO[C@@H]1C[C@@H]2O [Paclitaxel] (max 1 µM)
- GRmax, 72 h [1]: -0.199 GR
- GRmax, 72 h [2]: -0.494 GR
- GRmax, 72 h [3]: -0.754 GR
- GRmax, 72 h [4]: 0.0855 GR
- GRmax, 72 h [5]: -0.126 GR
- GRmax, 72 h [6]: -0.34 GR
- GRmax, 72 h [7]: -0.326 GR
- GRmax, 72 h [8]: 0.298 GR
- GRmax, 72 h [9]: -0.283 GR
- GRmax, 72 h [10]: -0.401 GR
- area over the GR curve [11]: 0.663 GR
- area over the GR curve [12]: 0.827 GR
- area over the GR curve [13]: 0.953 GR

Compound: CS(=O)(=O)N1CCN(Cc2cc3nc(-c4cccc5[nH]ncc45)nc(N4CCOCC4)c3s2)CC1 [Pictilisib/GDC0941] (max 10 µM)
- GRmax, 72 h [1]: 0.194 GR
- GRmax, 72 h [2]: -0.237 GR
- GRmax, 72 h [3]: -0.293 GR
- GRmax, 72 h [4]: -0.0303 GR
- GRmax, 72 h [5]: 0.193 GR
- GRmax, 72 h [6]: -0.127 GR
- GRmax, 72 h [7]: 0.13 GR
- GRmax, 72 h [8]: 0.0142 GR
- GRmax, 72 h [9]: 0.0145 GR
- GRmax, 72 h [10]: -0.205 GR
- area over the GR curve [11]: 0.346 GR
- area over the GR curve [12]: 0.309 GR
- area over the GR curve [13]: 0.392 GR

Compound: O=C1NC(=NCc2cccs2)SC1=Cc1ccc2ncccc2c1 [R0-3306] (max 10 µM)
- GRmax, 72 h [1]: 0.15 GR
- GRmax, 72 h [2]: 0.0254 GR
- GRmax, 72 h [3]: -0.648 GR
- GRmax, 72 h [4]: 0.203 GR
- GRmax, 72 h [5]: -0.0081 GR
- GRmax, 72 h [6]: -0.0433 GR
- GRmax, 72 h [7]: -0.252 GR
- GRmax, 72 h [8]: 0.827 GR
- GRmax, 72 h [9]: -0.11 GR
- GRmax, 72 h [10]: 0.114 GR
- area over the GR curve [11]: 0.022 GR
- area over the GR curve [12]: 0.0716 GR
- area over the GR curve [13]: 0.276 GR

Compound: CNCc1ccc(-c2[nH]c3cc(F)cc4c3c2CCNC4=O)cc1 [Rucaparib] (max 10 µM)
- GRmax, 72 h [1]: 0.613 GR
- GRmax, 72 h [2]: 0.789 GR
- GRmax, 72 h [3]: 0.802 GR
- GRmax, 72 h [4]: 0.523 GR
- GRmax, 72 h [5]: 0.874 GR
- GRmax, 72 h [6]: 0.757 GR
- GRmax, 72 h [7]: 0.0259 GR
- GRmax, 72 h [8]: 0.772 GR
- GRmax, 72 h [9]: 0.771 GR
- GRmax, 72 h [10]: 0.961 GR
- area over the GR curve [11]: -0.0162 GR
- area over the GR curve [12]: 0.059 GR
- area over the GR curve [13]: 0.0038 GR

Compound: CC1(N)CCN(c2cnc(-c3cccc(Cl)c3Cl)c(N)n2)CC1 [SHP099] (max 10 µM)
- GRmax, 72 h [1]: 0.869 GR
- GRmax, 72 h [2]: 0.779 GR
- GRmax, 72 h [3]: 0.77 GR
- GRmax, 72 h [4]: 0.733 GR
- GRmax, 72 h [5]: 0.571 GR
- GRmax, 72 h [6]: 1.02 GR
- GRmax, 72 h [7]: 0.523 GR
- GRmax, 72 h [8]: 0.457 GR
- GRmax, 72 h [9]: 0.749 GR
- GRmax, 72 h [10]: 0.937 GR
- area over the GR curve [11]: -0.114 GR
- area over the GR curve [12]: 0.0791 GR
- area over the GR curve [13]: 0.075 GR

Compound: CN1CCN(CCOc2cc(OC3CCOCC3)c3c(Nc4c(Cl)ccc5c4OCO5)ncnc3c2)CC1 [Saracatinib/AZD0530] (max 10 µM)
- GRmax, 72 h [1]: 0.526 GR
- GRmax, 72 h [2]: 0.774 GR
- GRmax, 72 h [3]: 0.15 GR
- GRmax, 72 h [4]: -0.22 GR
- GRmax, 72 h [5]: 0.148 GR
- GRmax, 72 h [6]: 0.279 GR
- GRmax, 72 h [7]: 0.0846 GR
- GRmax, 72 h [8]: 0.419 GR
- GRmax, 72 h [9]: 0.581 GR
- GRmax, 72 h [10]: 0.486 GR
- area over the GR curve [11]: 0.188 GR
- area over the GR curve [12]: 0.191 GR
- area over the GR curve [13]: 0.112 GR

Compound: Cc1cc(C(C)Nc2ccccc2)c2nc(N3CCOCC3)cc(=O)n2c1 (stereo not given) [TGX221] (max 10 µM)
- GRmax, 72 h [1]: 1.02 GR
- GRmax, 72 h [2]: 0.85 GR
- GRmax, 72 h [3]: 0.46 GR
- GRmax, 72 h [4]: 0.782 GR
- GRmax, 72 h [5]: 0.951 GR
- GRmax, 72 h [6]: 0.75 GR
- GRmax, 72 h [7]: 0.705 GR
- GRmax, 72 h [8]: 0.509 GR
- GRmax, 72 h [9]: 0.989 GR
- GRmax, 72 h [10]: 0.755 GR
- area over the GR curve [11]: 0.0644 GR
- area over the GR curve [12]: -0.0656 GR
- area over the GR curve [13]: -0.155 GR

Compound: CN(C)C/C=C/C(=O)Nc1ccc(C(=O)Nc2cccc(Nc3ncc(Cl)c(-c4c[nH]c5ccccc45)n3)c2)cc1 [THZ1] (max 1 µM)
- GRmax, 72 h [1]: -0.128 GR
- GRmax, 72 h [2]: -0.486 GR
- GRmax, 72 h [3]: -0.852 GR
- GRmax, 72 h [4]: -0.0084 GR
- GRmax, 72 h [5]: -0.525 GR
- GRmax, 72 h [6]: -0.789 GR
- GRmax, 72 h [7]: -0.906 GR
- GRmax, 72 h [8]: -0.219 GR
- GRmax, 72 h [9]: -0.467 GR
- GRmax, 72 h [10]: -0.437 GR
- area over the GR curve [11]: 0.363 GR
- area over the GR curve [12]: 0.31 GR
- area over the GR curve [13]: 0.706 GR

Compound: CN(C)C/C=C/C(=O)Nc1ccc(C(=O)N2CCC[C@@H](Nc3ncc(Cl)c(-c4c[nH]c5ccccc45)n3)C2)cc1 [THZ531] (max 1 µM)
- GRmax, 72 h [1]: -0.0211 GR
- GRmax, 72 h [2]: -0.398 GR
- GRmax, 72 h [3]: -0.852 GR
- GRmax, 72 h [4]: 0.0684 GR
- GRmax, 72 h [5]: -0.625 GR
- GRmax, 72 h [6]: -0.619 GR
- GRmax, 72 h [7]: -0.602 GR
- GRmax, 72 h [8]: -0.175 GR
- GRmax, 72 h [9]: -0.725 GR
- GRmax, 72 h [10]: -0.17 GR
- area over the GR curve [11]: 0.312 GR
- area over the GR curve [12]: 0.143 GR
- area over the GR curve [13]: 0.177 GR

Compound: CN(C)C/C=C/C(=O)Nc1ccc(C(=O)Nc2cccc(Nc3cc(-c4c[nH]c5ccccc45)ncn3)c2)cc1 [THZ-P1-2] (max 10 µM)
- GRmax, 72 h [1]: -0.278 GR
- GRmax, 72 h [2]: -0.626 GR
- GRmax, 72 h [3]: 0.283 GR
- GRmax, 72 h [4]: -0.2 GR
- GRmax, 72 h [5]: -0.181 GR
- GRmax, 72 h [6]: -0.777 GR
- GRmax, 72 h [7]: -0.299 GR
- GRmax, 72 h [8]: -0.295 GR
- GRmax, 72 h [9]: -0.218 GR
- GRmax, 72 h [10]: -0.598 GR
- area over the GR curve [11]: 0.0873 GR
- area over the GR curve [12]: 0.114 GR
- area over the GR curve [13]: 0.619 GR

Compound: Cc1nc(-c2cn3c(n2)-c2ccc(-c4cnn(C(C)(C)C(N)=O)c4)cc2OCC3)n(C(C)C)n1 [Taselisib/GDC0032] (max 10 µM)
- GRmax, 72 h [1]: 0.151 GR
- GRmax, 72 h [2]: -0.152 GR
- GRmax, 72 h [3]: -0.0769 GR
- GRmax, 72 h [4]: 0.0192 GR
- GRmax, 72 h [5]: 0.0593 GR
- GRmax, 72 h [6]: -0.207 GR
- GRmax, 72 h [7]: 0.0942 GR
- GRmax, 72 h [8]: -0.367 GR
- GRmax, 72 h [9]: -0.253 GR
- GRmax, 72 h [10]: -0.0187 GR
- area over the GR curve [11]: 0.598 GR
- area over the GR curve [12]: 0.949 GR
- area over the GR curve [13]: 1.02 GR

Compound: O=C1NC(=O)[C@@H](c2cn3c4c(cccc24)CCC3)[C@@H]1c1c[nH]c2ccccc12 [Tivantinib/ARQ197] (max 10 µM)
- GRmax, 72 h [1]: -0.256 GR
- GRmax, 72 h [2]: -0.566 GR
- GRmax, 72 h [3]: -0.761 GR
- GRmax, 72 h [4]: 0.114 GR
- GRmax, 72 h [5]: -0.15 GR
- GRmax, 72 h [6]: -0.352 GR
- GRmax, 72 h [7]: -0.43 GR
- GRmax, 72 h [8]: 0.169 GR
- GRmax, 72 h [9]: -0.138 GR
- GRmax, 72 h [10]: -0.354 GR
- area over the GR curve [11]: 0.278 GR
- area over the GR curve [12]: 0.544 GR
- area over the GR curve [13]: 0.762 GR

Compound: Nc1ccc(-c2ccc3ncc4ccc(=O)n(-c5cccc(C(F)(F)F)c5)c4c3c2)cn1 [Torin2] (max 1 µM)
- GRmax, 72 h [1]: -0.0115 GR
- GRmax, 72 h [2]: -0.147 GR
- GRmax, 72 h [3]: -0.0468 GR
- GRmax, 72 h [4]: 0.0177 GR
- GRmax, 72 h [5]: 0.128 GR
- GRmax, 72 h [6]: -0.342 GR
- GRmax, 72 h [7]: -0.0903 GR
- GRmax, 72 h [8]: -0.0832 GR
- GRmax, 72 h [9]: -0.391 GR
- GRmax, 72 h [10]: -0.351 GR
- area over the GR curve [11]: 0.487 GR
- area over the GR curve [12]: 0.55 GR
- area over the GR curve [13]: 0.737 GR

Compound: CC[C@@H]1C(=O)N(C)c2cnc(Nc3ccc(C(=O)N[C@H]4CC[C@H](N5CCN(CC6CC6)CC5)CC4)cc3OC)nc2N1C(C)C [Volasertib/BI6727] (max 1 µM)
- GRmax, 72 h [1]: 0.0258 GR
- GRmax, 72 h [2]: -0.296 GR
- GRmax, 72 h [3]: -0.708 GR
- GRmax, 72 h [4]: 0.224 GR
- GRmax, 72 h [5]: -0.0887 GR
- GRmax, 72 h [6]: -0.349 GR
- GRmax, 72 h [7]: -0.388 GR
- GRmax, 72 h [8]: 0.28 GR
- GRmax, 72 h [9]: -0.309 GR
- GRmax, 72 h [10]: -0.409 GR
- area over the GR curve [11]: 0.375 GR
- area over the GR curve [12]: 0.611 GR
- area over the GR curve [13]: 0.623 GR
